Laboratory results: article PMC9780888, “4-Isobutylmethcathinone—A Novel Synthetic Cathinone with High In Vitro Cytotoxicity and Strong Receptor Binding Preference of Enantiomers” (Pharmaceuticals, 2022)
Structures can show the parent of a compound that is named as a salt.

Tests used:
Hep G2 = experiment: WST-1 viability assay, Hep G2 cells; assay type: cell-based, human; conditions: Hep G2, 72 h incubation, WST-1, four replicates
Experimental: (§1) Based on the novelty of the IMBcat compound, we aimed to evaluate its in vitro cytotoxicity in selected model cell lines as well as to determine the toxicity of the IBMcat enantiomers, since both the chemical structure and chirality of compounds could play a role in their bioactivity (Table 2). The cytotoxic profile of the IBMcat was determined by a WST-1 viability assay after 72-h treatment. For this purpose, cell lines derived from distinct tissues, often affected by NPSs, were chosen, i.e., cells of kidney, hepatic, neural, urinary, and intestinal origin as well as keratinocytes and primary fibroblasts (HEK 293T, Hep G2, HMC-3, SH-SY5Y, 5637, CaCo-2, HaCaT, MRC-5, and BJ, respectively). The cytotoxicity of IBMcat and its enantiomers was concentration- and cell-line dependent, the IC50 values, which were in the micromolar range, are given in Table 2. […] This was followed by embryonic kidney cells HEK 293T (immortalized), in which the toxicity ranged between a concentration of 123 and 192 µM.
(§2) In this study, the following cell lines were used: HEK 293T, Hep G2, HMC-3, SH-SY5Y, 5637, CaCo-2, HaCaT, MRC-5, BJ, and L929. […] The selected cell lines were chosen so that not only primary noncancerous cells are evaluated but also cells derived from tissues, which are the most often affected by novel synthetic drugs, i.e., kidney, liver, urinary bladder, and nervous tissue. […]
(§3) The cytotoxicity of IBMCat was evaluated in vitro by using a WST-1 viability assay (Sigma-Aldrich, Saint Louis, MO, USA) based on the transformation of a tetrazolium salt into colored formazan in metabolically active cells. […] After 72 h of additional incubation of the cells, their viability was determined by WST-1. […] The cells were incubated for 2 h, after which absorbance of the raised formazan was measured spectrophotometrically at 450 nm (reference wavelength of 630 nm) using a UV-Vis spectrometer (Bio-Rad Laboratories, Hercules, CA, USA). […] The half-maximal inhibitory concentrations (IC50) were calculated from the measured dose–response curves by AAT Bioquest.

L929 = experiment: WST-1 viability assay, L929 cells; assay type: cell-based, mouse; conditions: L929, 72 h incubation, WST-1, four replicates
Experimental: as §1, §2, §3

BJ = experiment: WST-1 viability assay, BJ cells; assay type: cell-based, human; conditions: 72 h incubation, WST-1, four replicates
Experimental: as §1, §2, §3

Row | Structure (SMILES) | IC50 (Hep G2; Homo sapiens, HepG2) | IC50 (L929; Mus musculus) | IC50 (BJ; Homo sapiens) | IC50 (Hep G2) | IC50 (L929) | IC50 (BJ)
1 | CNC(C)C(=O)c1ccc(CC(C)C)cc1.Cl (stereo not drawn) [IBMcat, 4-isobutylmethcathinone hydrochloride] | 52 ± 7 µM | 36 ± 4 µM | 749 ± 102 µM | – | – | –
2 | CN[C@@H](C)C(=O)c1ccc(CC(C)C)cc1 [S-IBMCat, (S)-4-isobutylmethcathinone hydrochloride] | 46 ± 9 µM | 33 ± 5 µM | 685 ± 41 µM | – | – | –
3 | CN[C@H](C)C(=O)c1ccc(CC(C)C)cc1 [R-IBMCat] | – | – | – | 49 ± 1 µM | 39 ± 2 µM | 698 ± 88 µM
